The results in this text go back to publication PMC12647218 (Scientific Reports, 2025).

Test [1] deals with Butyrylcholinesterase from equine serum (Equus caballus, UniProt P81908). In words: BChE inhibition, modified colorimetric Ellman method. It is filed as biochemical. For orientation: DTNB colorimetry detects thiols as they appear.
For a further test, the target named is T1, hMAO-A (Homo sapiens, UniProt P21397).
T1 sequence (P21397 1-527): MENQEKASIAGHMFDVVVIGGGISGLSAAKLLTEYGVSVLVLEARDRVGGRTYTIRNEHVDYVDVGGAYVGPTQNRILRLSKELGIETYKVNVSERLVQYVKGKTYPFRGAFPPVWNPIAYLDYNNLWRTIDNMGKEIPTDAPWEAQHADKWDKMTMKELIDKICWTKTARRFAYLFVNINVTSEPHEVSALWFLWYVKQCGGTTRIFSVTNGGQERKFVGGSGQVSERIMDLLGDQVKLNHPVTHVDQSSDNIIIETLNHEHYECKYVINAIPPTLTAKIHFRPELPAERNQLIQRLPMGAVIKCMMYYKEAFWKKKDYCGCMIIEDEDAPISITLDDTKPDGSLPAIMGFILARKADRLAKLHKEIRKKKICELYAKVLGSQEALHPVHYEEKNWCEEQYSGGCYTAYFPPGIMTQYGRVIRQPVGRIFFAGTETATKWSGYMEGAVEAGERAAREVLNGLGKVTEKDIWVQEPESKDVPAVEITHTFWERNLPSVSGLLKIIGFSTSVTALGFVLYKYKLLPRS
Put plainly: hMAO-A inhibition, in vitro fluorometric technique. It is filed as biochemical.

The target of test [2] is Acetylcholinesterase from Electrophorus electricus (electric eel) (Electrophorus electricus, UniProt O42275). In words: biochemical.

One may read the IC50 as the midpoint of a concentration-inhibition curve. A higher IC50 goes with weaker potency. The Ki is the equilibrium dissociation constant of an inhibitor or competing ligand from its target.

Acetylcholinesterase from Electrophorus electricus (electric eel), sequence (O42275 24-633): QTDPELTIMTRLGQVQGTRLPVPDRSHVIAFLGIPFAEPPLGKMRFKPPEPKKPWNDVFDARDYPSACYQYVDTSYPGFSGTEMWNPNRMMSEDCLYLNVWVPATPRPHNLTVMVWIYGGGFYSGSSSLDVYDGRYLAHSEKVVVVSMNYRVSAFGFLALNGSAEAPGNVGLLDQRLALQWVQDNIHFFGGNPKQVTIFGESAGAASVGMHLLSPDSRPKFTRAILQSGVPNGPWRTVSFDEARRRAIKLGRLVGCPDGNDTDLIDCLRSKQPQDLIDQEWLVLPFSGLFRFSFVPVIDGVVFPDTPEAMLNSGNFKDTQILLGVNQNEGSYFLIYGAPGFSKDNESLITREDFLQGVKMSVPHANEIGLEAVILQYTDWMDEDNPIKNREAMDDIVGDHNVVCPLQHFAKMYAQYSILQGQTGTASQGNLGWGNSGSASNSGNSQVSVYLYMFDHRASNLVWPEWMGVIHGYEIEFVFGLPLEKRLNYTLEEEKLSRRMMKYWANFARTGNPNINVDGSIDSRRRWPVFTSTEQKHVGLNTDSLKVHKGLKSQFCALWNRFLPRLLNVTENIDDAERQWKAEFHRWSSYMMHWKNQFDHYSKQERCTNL
Butyrylcholinesterase from equine serum, sequence (P81908 whole entry): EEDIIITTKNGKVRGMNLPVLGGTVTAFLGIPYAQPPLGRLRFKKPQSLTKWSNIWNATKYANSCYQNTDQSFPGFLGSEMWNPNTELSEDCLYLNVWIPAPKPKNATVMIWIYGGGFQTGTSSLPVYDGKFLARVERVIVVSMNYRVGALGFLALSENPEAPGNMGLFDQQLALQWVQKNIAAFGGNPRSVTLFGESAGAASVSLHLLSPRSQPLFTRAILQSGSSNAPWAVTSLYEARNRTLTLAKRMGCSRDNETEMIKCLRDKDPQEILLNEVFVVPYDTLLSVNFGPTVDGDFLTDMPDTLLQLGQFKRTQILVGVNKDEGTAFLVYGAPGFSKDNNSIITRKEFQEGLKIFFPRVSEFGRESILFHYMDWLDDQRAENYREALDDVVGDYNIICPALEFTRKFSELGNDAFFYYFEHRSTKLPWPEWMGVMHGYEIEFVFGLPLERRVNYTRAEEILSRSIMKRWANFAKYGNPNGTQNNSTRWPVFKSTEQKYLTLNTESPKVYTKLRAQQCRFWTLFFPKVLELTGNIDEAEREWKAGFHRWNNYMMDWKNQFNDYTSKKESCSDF

On to `COc1cccc2cc(/C(C)=N/NC(=O)Cc3ccccc3)c(=O)oc12` [Compound 3i, (E)-N’-(1-(8-methoxy-2-oxo-2 H-chromen-3-yl)ethylidene)-2-phenylacetohydrazide], for which the results for the IC50 (in test [1]; against hMAO-A; in test [2]) were 79.3 ± 5.03 µM, 1.87 ± 0.07 µM and 18.4 ± 1.98 µM, respectively. The Ki in test [1] was 70.3 ± 3.57 µM; in test [2], 15.4 ± 2.01 µM.
As to `COc1cccc2cc(/C(C)=N/NC(=O)c3cccc(Cl)c3)c(=O)oc12` [Compound 3h, (E)-3-chloro-N’-(1-(8-methoxy-2-oxo-2 H-chromen-3-yl)ethylidene)benzohydrazide], the IC50 in test [1] was found to be 85 ± 3.48 µM; on hMAO-A it was 1.8 ± 0.26 µM; in test [2], 41.1 ± 3.28 µM. Moreover, the inhibition constant Ki is 77 ± 6.92 µM in test [1] and 25.8 ± 1.97 µM in test [2].
Turning to `COc1cccc2cc(/C(C)=N/NC(=O)c3ccccn3)c(=O)oc12` [Compound 3l, (E)-N’-(1-(8-methoxy-2-oxo-2 H-chromen-3-yl)ethylidene)picolinohydrazide], the IC50 in test [1] amounted to 75 ± 5.3 µM; against hMAO-A, 1.65 ± 0.34 µM; in test [2], 8.54 ± 1.01 µM. Also, the Ki in test [1] was 69 ± 5.3 µM; in test [2], 7.08 ± 0.64 µM.
As for `COc1cccc2cc(/C(C)=N/NC(=O)c3ccccc3C)c(=O)oc12` [Compound 3d, (E)-N’-(1-(8-methoxy-2-oxo-2 H-chromen-3-yl)ethylidene)-2-methylbenzohydrazide], the figures for the IC50 (in test [1]; on hMAO-A; in test [2]) were 90.1 ± 3.78 µM, 1.73 ± 0.05 µM and 20.2 ± 2.67 µM, respectively. Besides, the Ki was 69.9 ± 5.75 µM in test [1] and 13.5 ± 1.24 µM in test [2].
Consider `COc1cccc2cc(/C(C)=N/NC(=O)c3ccc(C(F)(F)F)cc3)c(=O)oc12` [Compound 3e, (E)-N’-(1-(8-methoxy-2-oxo-2 H-chromen-3-yl)ethylidene)-4-(trifluoromethyl) benzohydrazide], for which the IC50 in test [1] was 65.4 ± 4.55 µM; against hMAO-A, 1.51 ± 0.13 µM; in test [2], 8.01 ± 0.7 µM. Also, the Ki in test [1] came out at 57 ± 3.95 µM; in test [2], 7.38 ± 1.01 µM.
Turning to `COc1cccc2cc(/C(C)=N/NC(=O)c3ccccc3Cl)c(=O)oc12` [Compound 3m, (E)-2-chloro-N’-(1-(8-methoxy-2-oxo-2 H-chromen-3-yl)ethylidene)benzohydrazide], the concentration for half-maximal inhibition (IC50) in test [1] is 82.3 ± 6.9 µM; against hMAO-A it was 1.9 ± 0.3 µM; in test [2], 14.8 ± 1.4 µM. The figures for the Ki in test [1] and in test [2] were 71.4 ± 7.01 µM and 10.4 ± 0.59 µM, respectively.
Taken in the same sequence, the figures for `COc1cccc2cc(/C(C)=N/NC(=O)c3ccc(F)cc3)c(=O)oc12` [Compound 3k, (E)-4-fluoro-N’-(1-(8-methoxy-2-oxo-2 H-chromen-3-yl)ethylidene)benzohydrazide] were 71.5 ± 3.68 µM, 1.83 ± 0.17 µM, 12.4 ± 0.98 µM, 66.1 ± 4.62 µM and 7.95 ± 0.57 µM.
As to `COc1cccc2cc(/C(C)=N/NC(=O)Cn3ccc4cccnc43)c(=O)oc12` [Compound 3b, (E)-N’-(1-(8-methoxy-2-oxo-2 H-chromen-3-yl)ethylidene)-2-(1 H-pyrrolo[2,3-b]pyridin-1-yl)acetohydrazide], the concentration for half-maximal inhibition (IC50) in test [1] was over 100 µM; at hMAO-A, 1.97 ± 0.1 µM; in test [2], 26.5 ± 3.42 µM. Also, the Ki in test [1] is over 100 µM; in test [2], 15.7 ± 1.37 µM.
With `COc1cccc2cc(/C(C)=N/NC(=O)c3ccco3)c(=O)oc12` [Compound 3f, (E)-N’-(1-(8-methoxy-2-oxo-2 H-chromen-3-yl)ethylidene)furan-2-carbohydrazide], the IC50 in test [1] worked out at 78.2 ± 5.8 µM; at hMAO-A it was 3.94 ± 0.43 µM; in test [2], 23.8 ± 2.44 µM. The Ki worked out at 68.5 ± 5.07 µM in test [1] and 19.6 ± 2.44 µM in test [2].
In the case of `COc1cccc2cc(/C(C)=N/NC(=O)c3cccs3)c(=O)oc12` [Compound 3j, (E)-N’-(1-(8-methoxy-2-oxo-2 H-chromen-3-yl)ethylidene)thiophene-2-carbohydrazide], the values for the IC50 (in test [1]; at hMAO-A; in test [2]) were over 100 µM, 2.5 ± 0.31 µM and 21.9 ± 3.24 µM, respectively. The Ki in test [1] is over 100 µM; in test [2] it was 14.6 ± 1.05 µM.
As to `COc1cccc2cc(/C(C)=N/NC(=O)c3ccccc3Br)c(=O)oc12` [Compound 3c, (E)-2-bromo-N’-(1-(8-methoxy-2-oxo-2 H-chromen-3-yl)ethylidene)benzohydrazide], the IC50 in test [1] was over 100 µM; on hMAO-A, 2.03 ± 0.08 µM; in test [2], 17 ± 1.9 µM. In addition, the Ki was over 100 µM in test [1] and 11.3 ± 0.93 µM in test [2].
For the compound `COc1cccc2cc(/C(C)=N/NC(=O)c3cccc4[nH]ccc34)c(=O)oc12` [Compound 3g, (E)-N’-(1-(8-methoxy-2-oxo-2 H-chromen-3-yl)ethylidene)-1 H-indole-4-carbohydrazide], the IC50 was determined as 81.5 ± 6.02 µM in test [1], 2.08 ± 0.15 µM against hMAO-A and 29 ± 4.3 µM in test [2]. Further, the Ki in test [1] came out at 73.6 ± 4.66 µM; in test [2], 21 ± 3.48 µM.
On to `COc1cccc2cc(/C(C)=N/NC(=O)c3cc4ccccc4cc3O)c(=O)oc12` [Compound 3a, (E)-3-Hydroxy-N’-(1-(8-methoxy-2-oxo-2 H-chromen-3-yl)ethylidene)-2-naphthohydrazide], for which the results for the IC50 (in test [1]; against hMAO-A; in test [2]) were 74.4 ± 4.98 µM, 1.44 ± 0.03 µM and 7.4 ± 0.14 µM, respectively. The results for the Ki in test [1] and in test [2] were 63.3 ± 5.38 µM and 6.03 ± 0.4 µM, respectively.
